Test results: patent US11866414B2, “Substituted heterocyclic compounds” (BRISTOL-MYERS SQUIBB COMPANY, priority 2021, dated 2024)

Key:
[1] = system: IFNα-induced STAT phosphorylation (pSTAT5); assay: IFNα-induced STAT phosphorylation in human whole blood; format: cell-based; conditions: 1 h compound, 1000 U/mL IFNα A/D 15 min, CD3 positive population, read-out: Human Whole blood IFNa pSTAT5 IC50
Experimental: IFNα-Induced STAT Phosphorylation in Human Whole Blood
After an hour long incubation with compound, human whole blood (drawn with ACD-A as anticoagulant) was stimulated with 1000 U/mL recombinant human IFNα A/D (R&D Systems 11200-2) for 15 min. The stimulation was stopped by adding Fix/Lyse buffer (BD 558049). Cells were stained with a CD3 FITC antibody (BD 555916), washed, and permeabilized on ice using Perm III buffer (BD 558050). Cells were then stained with an Alexa-Fluor 647 pSTAT5 (pY694) antibody (BD 612599) for 60 min prior to analysis on the iQue Plus. The amount of pSTAT5 expression was quantitated by median fluorescence intensity after gating on the CD3 positive population.

in vitro = conditions: human, Caco-2, pH 7.4

IC50 [1] | Papp A→B at 2 h, 3 μM (in vitro) | efflux ratio at 2 h, 3 μM (in vitro) | Papp B→A at 2 h, 3 μM (in vitro) | Structure (SMILES)
220 nM | – | – | – | CNC(=O)c1nnc(NC(=O)C2CC2)cc1Nc1cccc(-c2cnn(CC(F)F)n2)c1OC [Example 3, 6-cyclopropaneamido-4-({3-[2-(2,2-difluoroethyl)-2H-1,2,3-triazol-4-yl]-2-methoxyphenyl}amino)-N—(^2H3)methylpyridazine-3-carboxamide]
20 nM | 7.4 ×10⁻⁶ cm/s | 0.9 | – | [2H]C([2H])([2H])NC(=O)c1nnc(Nc2cc(C)n(C)n2)cc1Nc1cccc(-c2cnn(C)n2)c1OC [Example 6, 6-[(1,5-dimethyl-1H-pyrazol-3-yl)amino]-4-{[2-methoxy-3-(2-methyl-2H-1,2,3-triazol-4-yl)phenyl]amino}-N—(^2H3)methylpyridazine-3-carboxamide]
230 nM | 1.9 ×10⁻⁶ cm/s | < 0.8 | – | [2H]C([2H])([2H])NC(=O)c1nnc(Nc2ccccn2)cc1Nc1cccc(-c2cnn(C)n2)c1OC [Example 8, 4-{[2-methoxy-3-(2-methyl-2H-1,2,3-triazol-4-yl)phenyl]amino}-N—(^2H3)methyl-6-[(pyridin-2-yl)amino]pyridazine-3-carboxamide]
290 nM | – | – | – | CCn1ncc(-c2c(F)ccc(Nc3cc(NC(=O)C4CC4)nnc3C(=O)NC)c2OC)n1 [Example 10, 6-cyclopropaneamido-4-{[3-(2-ethyl-2H-1,2,3-triazol-4-yl)-4-fluoro-2-methoxyphenyl]amino}-N—(^2H3)methylpyridazine-3-carboxamide]
230 nM | – | – | – | CNC(=O)c1nnc(NC(=O)C2CC2)cc1Nc1cc(F)cc(-c2cnn(C3CC3)n2)c1OC [Example 12, 6-cyclopropaneamido-4-{[3-(2-cyclopropyl-2H-1,2,3-triazol-4-yl)-5-fluoro-2-methoxyphenyl]amino}-N—(^2H3)methylpyridazine-3-carboxamide]
190 nM | – | – | – | CNC(=O)c1nnc(NC(=O)C2CC2)cc1Nc1nccc(-c2cnn(C3CC3)n2)c1OC [Example 14, 6-cyclopropaneamido-4-{[4-(2-cyclopropyl-2H-1,2,3-triazol-4-yl)-3-methoxypyridin-2-yl]amino}-N—(^2H3)methylpyridazine-3-carboxamide]
470 nM | – | – | – | CCn1ncc(-c2cc(Cl)cc(Nc3cc(NC(=O)C4CC4)nnc3C(=O)NC)c2OC)n1 [Example 15, 4-{[5-chloro-3-(2-ethyl-2H-1,2,3-triazol-4-yl)-2-methoxyphenyl]amino}-6-cyclopropaneamido-N—(^2H3)methylpyridazine-3-carboxamide]
1400 nM | – | – | – | CNC(=O)c1nnc(NC(=O)C2CC2)cc1Nc1ccc(F)c(-c2cnn(C3CC3)n2)c1OC [Example 16, 6-cyclopropaneamido-4-{[3-(2-cyclopropyl-2H-1,2,3-triazol-4-yl)-4-fluoro-2-methoxyphenyl]amino}-N—(^2H3)methylpyridazine-3-carboxamide]
40 nM | – | – | – | CNC(=O)c1nnc(NC(=O)C2CC2)cc1Nc1cc(C)cc(-c2cnn(C)n2)c1OC [Example 17, 6-cyclopropaneamido-4-{[2-methoxy-5-methyl-3-(2-methyl-2H-1,2,3-triazol-4-yl)phenyl]amino}-N—(^2H3)methylpyridazine-3-carboxamide]
230 nM | – | – | – | CNC(=O)c1nnc(NC(=O)C2CC2)cc1Nc1ccc(F)c(-c2cnn(C)n2)c1OC [Example 18, 6-cyclopropaneamido-4-{[4-fluoro-2-methoxy-3-(2-methyl-2H-1,2,3-triazol-4-yl)phenyl]amino}-N—(^2H3)methylpyridazine-3-carboxamide]
430 nM | 18.8 ×10⁻⁶ cm/s | 0.7 | – | [2H]C([2H])([2H])NC(=O)c1nnc(NC(=O)C2CC2)cc1Nc1cc(F)c(C)c(-c2cnn(C)n2)c1OC [Example 19, 6-(cyclopropanecarboxamido)-4-((5-fluoro-2-methoxy-4-methyl-3-(2-methyl-2H-1,2,3-triazol-4-yl)phenyl)amino)-N-(methyl-d3)pyridazine-3-carboxamide]
210 nM | 17 ×10⁻⁶ cm/s | 1.1 | – | [2H]C([2H])([2H])NC(=O)c1nnc(NC(=O)C2CC2)cc1Nc1cccc(-c2nn(C)nc2CC)c1OC [Example 20, 6-(cyclopropanecarboxamido)-4-((3-(5-ethyl-2-methyl-2H-1,2,3-triazol-4-yl)-2-methoxyphenyl)amino)-N-(methyl-d3)pyridazine-3-carboxamide]
230 nM | 33.6 ×10⁻⁶ cm/s | 0.5 | – | [2H]C([2H])([2H])NC(=O)c1nnc(NC(=O)C2CC2)cc1Nc1cc(CC)cc(-c2cnn(C)n2)c1OC [Example 21, 6-(cyclopropanecarboxamido)-4-((5-ethyl-2-methoxy-3-(2-methyl-2H-1,2,3-triazol-4-yl)phenyl)amino)-N-(methyl-d3)pyridazine-3-carboxamide]
330 nM | 51.1 ×10⁻⁶ cm/s | 0.7 | – | [2H]C([2H])([2H])NC(=O)c1nnc(NC(=O)C2CC2)cc1Nc1c(F)ccc(-c2cnn(C)n2)c1OC [Example 22, 6-(cyclopropanecarboxamido)-4-((6-fluoro-2-methoxy-3-(2-methyl-2H-1,2,3-triazol-4-yl)phenyl)amino)-N-(methyl-d3)pyridazine-3-carboxamide]
180 nM | 29.5 ×10⁻⁶ cm/s | 1.2 | – | [2H]C([2H])([2H])NC(=O)c1nnc(NC(=O)C2CC2)cc1Nc1cccc(-c2nn(C)nc2C)c1OC [Example 23, 6-(cyclopropane-carboxamido)-4-((3-(2,5-dimethyl-2H-1,2,3-triazol-4-yl)-2-methoxyphenyl)amino)-N-(methyl-d3)pyridazine-3-carboxamide]
20 nM | – | – | – | CNC(=O)c1nnc(NC(=O)C2CC2)cc1Nc1cccc(-c2cnn(C)n2)c1OC [Example 52, 6-cyclopropaneamido-4-({2-methoxy-3-[2-(^2H3)methyl-2H-1,2,3-triazol-4-yl]phenyl}amino)-N—(^2H3)methylpyridazine-3-carboxamide]
490 nM | – | – | – | CNC(=O)c1nnc(NC(=O)C2CC2)cc1Nc1cccc(-c2cnn(C3CCC3)n2)c1OC [Example 54, 4-{[3-(2-cyclobutyl-2H-1,2,3-triazol-4-yl)-2-methoxyphenyl]amino}-6-cyclopropaneamido-N—(^2H3)methylpyridazine-3-carboxamide]
480 nM | – | – | – | CNC(=O)c1nnc(NC(=O)C2CC2)cc1Nc1ccc(C2CC2)c(-c2cnn(C)n2)c1OC [Example 55, 6-cyclopropaneamido-4-{[4-cyclopropyl-2-methoxy-3-(2-methyl-2H-1,2,3-triazol-4-yl)phenyl]amino}-N—(^2H3)methylpyridazine-3-carboxamide]
290 nM | – | – | – | CNC(=O)c1nnc(NC(=O)C2CC2)cc1Nc1cccc(-c2cnn(C)n2)c1OC(F)F [Example 56, 6-cyclopropaneamido-4-{[2-(difluoromethoxy)-3-(2-methyl-2H-1,2,3-triazol-4-yl)phenyl]amino}-N—(^2H3)methylpyridazine-3-carboxamide]
130 nM | – | – | – | CNC(=O)c1nnc(NC(=O)C2CC2)cc1Nc1nccc(-c2cnn(C)n2)c1OC(F)F [Example 60, 6-cyclopropaneamido-4-{[3-(difluoromethoxy)-4-(2-methyl-2H-1,2,3-triazol-4-yl)pyridin-2-yl]amino}-N—(^2H3)methylpyridazine-3-carboxamide]
– | 2 ± 0.9 ×10⁻⁶ cm/s | 1.3 | 2.5 ± 1.1 ×10⁻⁶ cm/s | CC(C)(C)NCC(O)COc1cccc2c1CC(O)C(O)C2 (stereo not shown) [Nadolol, reference compound]

Structure (SMILES) | IC50 [1] | Papp A→B at 2 h, 3 μM (in vitro) | efflux ratio at 2 h, 3 μM (in vitro) | Papp B→A at 2 h, 3 μM (in vitro)
CNC(=O)c1nnc(NC(=O)C2CC2)cc1Nc1cccc(-c2cnn(CCF)n2)c1OC [Example 2, 6-cyclopropaneamido-4-({3-[2-(2-fluoroethyl)-2H-1,2,3-triazol-4-yl]-2-methoxyphenyl}amino)-N—(^2H3)methylpyridazine-3-carboxamide] | 30 nM | – | – | –
CNC(=O)c1nnc(NC(=O)[C@@H]2CC23CC3)cc1Nc1cccc(-c2cnn(C)n2)c1OC [Example 13, 4-{[2-methoxy-3-(2-methyl-2H-1,2,3-triazol-4-yl)phenyl]amino}-N—(^2H3)methyl-6-[(1R)-spiro[2.2]pentane-1-amido]pyridazine-3-carboxamide] | 170 nM | – | – | –
CNC(=O)c1nnc(NC(=O)N2CCC2)cc1Nc1cccc(-c2cnn(C)n2)c1OC [Example 51, 6-[(azetidine-1-carbonyl)amino]-4-{[2-methoxy-3-(2-methyl-2H-1,2,3-triazol-4-yl)phenyl]amino}-N—(^2H3)methylpyridazine-3-carboxamide] | 110 nM | – | – | –
CNC(=O)c1nnc(NC(=O)C2CC2)cc1Nc1cccc(-c2cnn(C3COC3)n2)c1OC [Example 53, 6-cyclopropaneamido-4-({2-methoxy-3-[2-(oxetan-3-yl)-2H-1,2,3-triazol-4-yl]phenyl}amino)-N—(^2H3)methylpyridazine-3-carboxamide] | 170 nM | – | – | –
CCN(C)C(=O)Nc1cc(Nc2nccc(-c3cnn(C)n3)c2OC)c(C(=O)NC)nn1 [Example 58, 6-{[ethyl(methyl)carbamoyl]amino}-4-{[3-methoxy-4-(2-methyl-2H-1,2,3-triazol-4-yl)pyridin-2-yl]amino}-N—(^2H3)methylpyridazine-3-carboxamide] | 230 nM | – | – | –
CNC(=O)c1nnc(NC(=O)N(C)C(C)C)cc1Nc1nccc(-c2cnn(C)n2)c1OC [Example 59, 4-{[3-methoxy-4-(2-methyl-2H-1,2,3-triazol-4-yl)pyridin-2-yl]amino}-N—(^2H3)methyl-6-{[methyl(propan-2-yl)carbamoyl]amino}pyridazine-3-carboxamide] | 250 nM | – | – | –
